Data set [1] deals with WM35 human melanoma cells. The data set can be described thus: Taxol take-up into cells, HPLC. It is filed as cell-based. As to the method:
(§1) The tests were carried out using cell lines of human melanoma originating from three stages of development: WM35 of the radial growth phase, WM239A metastatic line and A375P metastasis to lungs, malignant line. For every measuring point, cells were grown in 4 100 mm coming dishes for each separate cell line. […] The analyses were repeated thrice in independent experiments, obtaining similar results. The results were averaged and reported in μM per a million of cells. The cells were counted using a Countess Invitrogen™ counter.
(§2) For determination of the amount of drug absorbed by the melanoma cells, chromatographic method was used. An HPLC system (Shimadzu Corporation Japan) consisting of two LC 10AT vp high-pressure pumps, a DGU-14A degasser, a CTO-10 ASvp oven for the column thermostating, an SIL-10 ADvp automatic sample feeder, and an SPD-M10 Avp diode detector, was used for the measurements. CLASS-VP 7.2.1 software was used.
(§3) The samples were separated on a Phenomenex Gemini −Nx 5μ C18 (4.6×150 mm i.d) column+guard column from Phenomenex (4×3 mm i.d.) with identical packing, at a temperature of 20° C. Eluant with the following composition: solvent A (water+0.1% trifluoroacetic acid [TFA]) and solvent B (acetonitrile 0.1% TFA) was used. The sample was separated in the following gradient system: 20% of solvent B to 30% of solvent B linearly for 15 min, next linearly to 34% for 6 min, linearly to 100% of solvent B for 24 min consecutively, then 10 min isocratically at 100% of solvent B. The column was recalibrated for […] in 20% of solvent B. 20-μl samples were introduced at a flowrate of 1.0 ml/min during 65 min with a UV-Vis detection at 220 nm.
(§4) The results were validated in two steps, by comparing the obtained Rt values to Rt values of standards, and by analysis of spectra of the separated compound and their comparison with spectra of the standards.
(§5) A frozen dry pellet was flushed with 650 μl of a solution (2/1 isopropanol, methanol+10% acetonitrile), then sonicated 3×15 s and frozen for 24 h. After thawing, the sample was shaken lightly for 30 min, 200 μl of physiological saline and 1083 μl of chloroform were added, stirring vigorously for 3×4 min. Separation of the organic phase from the aqueous phase was carried out by centrifugation at 10,000 revolutions/10 min. The collected chloroform phase were subjected to concentration under partial vacuum in a concentrator at 4° C., and to second drying under argon atmosphere. The precipitate was dissolved in 100 μl of methanol and separated by HPLC.
(§6) The tests were carried out using methods described in detail in Example 3.

Data set [2] relates to human melanoma cells (WM35, WM239A, A375P). The data set can be described thus: "crystal violet" proliferation assay. It is filed as cell-based. The settings on record: statin 50-12.5 μM with docetaxel regimen at constant 0.5 μM. The procedure: The tests were carried out using cell lines of human melanoma originating from three stages of development: WM35 of the radial growth phase, WM239A metastatic line and A375P metastasis to lungs, malignant line.
The following statins were used in the studies: atorvastatin, fluvastatin, rosuvastatin, and pravastatin. The tests were carried out using cell lines of human melanoma originating from invasive stages of development: WM239A metastatic line and A375P P-metastasis to lungs, malignant line. […] Methodology according to that described in Example 1 was used. Additionally, the toxicity was analysed by investigations of reduced and oxidised glutathione contents. HPLC method was used.

Data set [3] deals with human melanoma cells. The data set can be described thus: Taxol take-up into cells, HPLC (conclusions over the lines). Format: cell-based. The settings on record: for effect on take-up of taxanes into human melanoma cells: statin with docetaxel.
The conditions of data set [4]: cited from earlier work.
The test system of another data set is ovarian cancer. To be noted: cited from earlier work.
In a further data set the test system is breast cancer. To be noted: cited from earlier work.
In a further data set the test system is lung cancer. To be noted: cited from earlier work.
Data set [5] deals with A375P human melanoma cells. The data set can be described thus: GSH/GSSG glutathione content and cell count (toxicity), RP-HPLC. Format: cell-based. To be noted: Docetaxel 0.5 μM, statin 20 μM. As to the method: (§7) Toxicities of the applied drugs were tested by a measurement of reduced and oxidised glutathione GSH/GSSG contents in the human melanoma cells. The glutathione contents were analysed by RP-HPLC. A method from prior art [references 1-4] was used.
(§8) The applied method consists in a reaction of GSH and GSSG with N-dinitrofluorobenzene, yielding N,S-dinitro-derivatives in the case of GSH and N,N-dinitro-derivatives in the case of GSSG. The elutions were carried out in a water-acetonitrile system, in accordance to the increasing acetonitrile concentration.
(§9) Determination of the levels of reduced glutathione, oxidised glutathione, and total glutathione were carried out using an RP-HPLC system from Shimadzu (SPD-M10VP photodiode matrix detector, class VP 7.2 software). The separations were carried out at a temperature of 20° C. using a Luna 5u C18 (Z) column (250 mm×4.6 mm, from Phenomenex), with a guard column with the same packing. Grade solvents were used as the eluant in the separations: acetonitrile/0.1% TFA and H2O/0.1% TFA. The separation was obtained in gradient elution, under a non-linear increase in the acetonitrile concentration from 20% to 100% during 90 minutes, at a flow of 1.0 ml/min. Samples with a volume of 20 μl were introduced into the column, filtered earlier using PTFE filters with a pore diameter of 0.2 μm (Supelco). The analysis of the compounds was carried out with UV-VIS detection at 365 nm. The cells were suspended in a 70% PCA/1 mM BPDS/0.9% NaCl solution in a 1:3 ratio, sonicated for 3×5 seconds (Bandelin SonoplusGM70) at a temperature of 4° C. and centrifuged under 1400 g at a temperature of 4° C. for 10 minutes. The prepared supernatant was used for the assays.
(§10) For identification of the tested compounds, proper standard solutions were used: GSH and GSSG.
(§11) All standard solutions were prepared in 10% PCA/1 mM BPDS, in redistilled water.
(§12) To determine the GSH and GSSG levels, calibration curves were used, prepared for standard solutions in the concentration range of 13 to 75 nmol/ml of the corresponding cell homogenate. The incubation mixture contained, respectively: supernatant originating from the cells, N-methyl-L-lysine (internal standard), 10% PCA/1 mM BPDS, 2 M KOH-2.4 M KHCO3 and 1% DNFB.
(§13) In the case of the calibration curve, the incubation mixture was prepared in an analogous way, but various volumes of standard solutions were added, and the final volume was controlled by the amount of the 10% PCA/1 mM BPDS added. After 24 h derivatization at room temperature, in darkness, the samples were acidified by adding 70% PCA and centrifuged for 2 minutes under 5600 g. The obtained supernatant was filtered through a PTFE-Supelco filter, introduced into the column, and 90-minute separation of the analysed compounds was carried out. The chromatograms were worked out identifying the compounds being separated according to their retention times, based on the standards available, and totalising the surface areas of the chromatographic peaks in the ranges of selected retention times.
(§14) Toxicities of the applied drugs were tested by a measurement of GSH/GSSG contents in the human melanoma cells. The glutathione contents were analysed by HPLC. A method drawn from the papers by [Bronowicka, Wróbel, Dominik] was used, described in detail in Example 2.

The subject of data set [6] is WM239A human melanoma cells. Described as above. It is filed as cell-based. The settings on record: Docetaxel 0.5 μM, statin 20 μM. The procedure:
as §7, §8, §9, §10, §11, §12, §13, §14

Data set [7] has as its system WM35 human melanoma cells. The description is as above. It is filed as cell-based. To be noted: Docetaxel 0.5 μM, statin 20 μM. The procedure: as §7, §8, §9, §10, §11, §12, §13, §14
The test system of data set [8] is A375P human melanoma cells. In words: Taxol take-up into cells, HPLC. It is filed as cell-based. As to the method:
as §1, §2, §3, §4, §5, §6

In data set [9] the test system is WM239A human melanoma cells. The data set can be described thus: Taxol take-up into cells, HPLC. Format: cell-based. As to the method:
as §1, §2, §3, §4, §5, §6

The subject of another data set is human fibroblast cells. The data set can be described thus: "crystal violet" proliferation assay. The settings on record: simvastatin in various concentrations with TCM regimen.
Data set [10] relates to human melanoma cells. The data set can be described thus: GSH/GSSG toxicity (conclusions over the lines). Format: cell-based. The settings on record: GSH/GSSG contents; statin 20 μM with Docetaxel 0.5 μM. As to the method:
as §7, §8
Determination of the levels of reduced glutathione, oxidised glutathione, and total glutathione were carried out using an RP-HPLC system from Shimadzu (SPD-M10VP photodiode matrix detector, class VP 7.2 software). The separations were carried out at a temperature of 20° C. using a Luna 5u C18 (Z) column (250 mm×4.6 mm, from Phenomenex), with a guard column with the same packing. Grade solvents were used as the eluant in the separations: acetonitrile/0.1% TFA and H2O/0.1% TFA. The separation was obtained in gradient elution, under a non-linear increase in the acetonitrile concentration from 20% to 100% during 90 minutes, at a flow of 1.0 ml/min. […]
Toxicities of the applied drugs were tested by a measurement of GSH/GSSG contents in the human melanoma cells. The glutathione contents were analysed by HPLC. […]

For data set [11] the following is noted: water/n-octanol; cited from earlier work.
Where [12] appears, read: cell count 22.5 mln, in the presence of various statins.
The mark [13] stands for this setting: relative to Docetaxel (T) = 100.
Where [14] appears, read: cell count 34.2 mln, in the presence of various statins.
Setting [15] is: WM 35, cell count 35.4 mln, in the presence of various statins.

≈ marks a conversion by molar mass, not a printed value.

For the molecule `CC(C)c1c(C(=O)Nc2ccccc2)c(-c2ccccc2)c(-c2ccc(F)cc2)n1CC[C@@H](O)C[C@@H](O)CC(=O)O` [atorvastatin], the “increase of Taxol content in melanoma cells, on average” value in [1] (WM35 (radial phase), in relation to the control with Taxol alone) was “two hundred percent”. Also, the “effect on proliferation of human melanoma cells” value in data set [2] is reported as “permanently inhibit synergistically”. In the data set on human melanoma cells [3] (melanoma cells from more advanced progression phases, vs Taxol alone), the “take-ups higher by” value is recorded as 30-45%. Moreover, in the data set with human melanoma cells [3], the “effect on take-up of taxanes into human melanoma cells” value is given as “selectively increases the taxanes take-up into human melanoma cells”.

On to `CC(C)c1nc(N(C)S(C)(=O)=O)nc(-c2ccc(F)cc2)c1/C=C/[C@@H](O)C[C@@H](O)CC(=O)O` [rosuvastatin], for which, in the data set on human melanoma cells [3], the “effect on take-up of taxanes into human melanoma cells” value is recorded as “weaker effect”. Besides, the solubility in water in [4] is 0.0886 mg/mL (≈ 184 µM).

`CC(=O)O[C@H]1C(=O)[C@@]2(C)[C@H]([C@H](OC(=O)c3ccccc3)[C@]3(O)C[C@H](OC(=O)[C@H](O)[C@@H](NC(=O)c4ccccc4)c4ccccc4)C(C)=C1C3(C)C)[C@]1(OC(C)=O)CO[C@@H]1C[C@@H]2O` [Paclitaxel, paclitaxel]: the efficiency in treatment is reported as 30% with ovarian cancer, 50% with breast cancer and 20% in the data set with lung cancer.

Turning to `CC(=O)O[C@@]12CO[C@@H]1C[C@H](O)[C@@]1(C)C(=O)[C@H](O)C3=C(C)[C@@H](OC(=O)[C@H](O)[C@@H](NC(=O)OC(C)(C)C)c4ccccc4)C[C@@](O)([C@@H](OC(=O)c4ccccc4)[C@H]21)C3(C)C` [T, Docetaxel], the GSH in [5] (48 h) is on record as 0.94 nmol/million of cells; in data set [6] (48 h) it was 1.07 nmol/million of cells; in [7] (48 h), 1.12 nmol/million of cells. Besides, the GSH/GSSG in data set [5] (48 h) is recorded as 6.78; in [6] (48 h), 6.53; in [7] (48 h) it was 0.59. The GSSG in data set [5] (48 h) was 0.14 nmol/million of cells; in [6] (48 h) it was 0.16 nmol/million of cells; in [7] (48 h) it was 1.88 nmol/million of cells. Besides, the results for the Total glutathione in data set [5] (48 h), in data set [6] (48 h) and in [7] (48 h) were 1.22 nmol/million of cells, 1.40 nmol/million of cells and 4.8 nmol/million of cells, respectively. Moreover, the “Cell count after 48 h” value in [5] (initial count 5.9 mln) is recorded as 11.1 mln; in data set [6] (initial count 6.2 mln) it was 10.1 mln; in [7] (initial count 7.1 mln) it was 10.1 mln. In addition, the results for the Taxol concentration in data set [8] (setting [12]), in [9] (setting [14]) and in data set [1] (setting [15]) were 36 µM, 74.8 µM and 57.08 µM, respectively. Besides, the entries for the “Taxol concentration per million of cells” value in data set [8] (setting [12]), in [9] (setting [14]) and in data set [1] (setting [15]) were 1.60 μM/million of cells, 2.18 μM/million of cells and 1.61 μM/million of cells, respectively. The “% content in cells” value worked out at 100% in [8] (setting [13]); 100% in data set [9] (setting [13]); 100% in data set [1] (WM 35, relative to Docetaxel (T) = 100).

`CCC(C)(C)C(=O)O[C@H]1C[C@@H](C)C=C2C=C[C@H](C)[C@H](CC[C@@H]3C[C@@H](O)CC(=O)O3)[C@H]21` [simvastatin]: the “effect on proliferation of normal cells” value in the data set on human fibroblast cells is listed as “does not affect the normal cells of human skin such as fibroblasts”.

Consider `CC[C@H](C)C(=O)O[C@H]1C[C@H](O)C=C2C=C[C@H](C)[C@H](CC[C@@H](O)C[C@@H](O)CC(=O)O)[C@H]21` [pravastatin], for which, in the data set with human melanoma cells [10], the “toxicity against human melanoma cells” value is “is not toxic and it does not affect the malignant cells”. In addition, the solubility in water in [4] was 19.0 mg/mL (≈ 44800 µM). Further, the “Log P” value in [11] is listed as 0.59.

Regarding `CC(C)n1c(/C=C/C(O)CC(O)CC(=O)O)c(-c2ccc(F)cc2)c2ccccc21` (centres unmarked) [fluvastatin], in data set [4], the solubility in water was 0.00046 mg/mL (≈ 1.12 µM).

Usually Log P stands for a log measure of how a compound divides between an organic and an aqueous phase.

(Values after patent US10912756B2, “Method for the treatment of human melanoma” (UNIWERSYTET JAGIELLONSKI, priority 2017, dated 2021).)
